Tests used:
Type in all cases: in vivo, human
[1] = Plasma pharmacokinetics of M2698, non-compartmental
Protocol: Plasma PK parameters on days 1 and 15 were calculated using non-compartmental methods.

[2] = Food effect on M2698 pharmacokinetics (fed vs fasted, single 240 mg dose)
Protocol: Food effect was analyzed using an analysis of variance (performed on natural log-transformed values of area under the plasma concentration-time curve from time zero to infinity (AUC0-∞) and maximum plasma concentration (Cmax) including sequence, period, and fasting/fed condition as effect).
Two single doses of 240 mg M2698 were administered 7 days apart (fed then fasted states or vice versa) to assess any effect of food on pharmacokinetics; these patients then continued treatment with either 240 mg/day or 320 mg/day M2698 as part of the dose expansion cohort. (240 mg, n=7; 320 mg, n=5)
^*Fed vs fasting following single dose of 240 mg M2698. Main analysis performed on natural log-transformed values of AUC0-∞ and Cmax including sequence, period and fasting/fed condition as effect. For one of the eight evaluable patients, no AUC under fed conditions was determined.

[3] = system: phospho-S6 (pS6) in tumor tissue; assay: pS6 in tumor biopsies by immunohistochemistry, PK/PD models
Text: Supplementary Table S7. Parameter estimates for pharmacokinetic/ pharmacodynamic models of pS6 in tumor tissue using dose and area under the curve (AUCT, calculated as dose divided by apparent clearance at time of tissue biopsy) as exposure metrics
log-linear regression model of dose – tumor pS6: y ~ slope *log(Dose)
Emax regression model of AUC – tumor pS6: y ~ (Emax *AUC) / (EC50 + AUC)

[4] = system: patients with advanced metastatic cancer; assay: Association between PK and safety (electrocardiogram ∆QTcF, fasting glucose)
[5] = day 1 single dose, monotherapy 15 mg, n=3
[6] = day 1 single dose, monotherapy 30 mg, n=3
[7] = day 1 single dose, monotherapy 60 mg, n=6
[8] = day 1 single dose, monotherapy 75 mg, n=4
[9] = day 1 single dose, monotherapy 110 mg, n=3
[10] = day 1 single dose, monotherapy 160 mg, n=5
[11] = day 1 single dose, monotherapy 200 mg, n=3
[12] = day 1 single dose, monotherapy 240 mg, n=9
[13] = day 1 single dose, monotherapy 320 mg, n=7
[14] = day 1 single dose, monotherapy 380 mg, n=4
[15] = day 15, combination with tamoxifen, M2698 80 mg, n=2
[16] = day 15, combination with tamoxifen, M2698 160 mg, n=5
[17] = day 15, combination with tamoxifen, M2698 200 mg, n=6
[18] = day 15, combination with tamoxifen, M2698 240 mg (intermittent regimen), n=4
[19] = day 15, combination with trastuzumab, M2698 80 mg, n=3
[20] = day 15, combination with trastuzumab, M2698 160 mg, n=7
[21] = day 15, monotherapy 110 mg, n=3
[22] = day 15, monotherapy 160 mg, n=5
[23] = day 15, monotherapy 200 mg, n=3
[24] = day 15, monotherapy 240 mg, n=7
[25] = day 15, monotherapy 320 mg, n=6
[26] = day 15, monotherapy 380 mg, n=2
[27] = Fasted, single dose of 240 mg, n=8

NC(=O)c1cccc2c(N[C@H](CN3CCC3)c3ccc(Cl)c(C(F)(F)F)c3)ncnc12 [M2698]
AUC0–24, Geo mean (GeoCV%) [1, 5]: 759 (67.2) ng∙h/mL
Cmax, GeoMean (GeoCV%) [1, 5]: 53.0 (91.1) ng/mL
tmax, median (range) [1, 5]: 3.08 (2.07–5.00) hours
AUC0–24, Geo mean (GeoCV%) [1, 6]: 1480 (52.9) ng∙h/mL
Cmax, GeoMean (GeoCV%) [1, 6]: 87.3 (55.9) ng/mL
tmax, median (range) [1, 6]: 4.00 (3.97–5.17) hours
AUC0–24, Geo mean (GeoCV%) [1, 7]: 2730 (36.3) ng∙h/mL
Cmax, GeoMean (GeoCV%) [1, 7]: 177 (38.3) ng/mL
tmax, median (range) [1, 7]: 4.08 (2.05–5.00) hours
AUC0–24, Geo mean (GeoCV%) [1, 8]: 4370 (85.2) ng∙h/mL
Cmax, GeoMean (GeoCV%) [1, 8]: 269 (114.4) ng/mL
tmax, median (range) [1, 8]: 4.83 (2.98–9.50) hours
AUC0–24, Geo mean (GeoCV%) [1, 9]: 4200 (21.0) ng∙h/mL
Cmax, GeoMean (GeoCV%) [1, 9]: 246 (21.7) ng/mL
tmax, median (range) [1, 9]: 6.08 (5.98–24.3) hours
AUC0–24, Geo mean (GeoCV%) [1, 10]: 8650 (49.8) ng∙h/mL
Cmax, GeoMean (GeoCV%) [1, 10]: 543 (65.3) ng/mL
tmax, median (range) [1, 10]: 4.05 (2.15–5.23) hours
AUC0–24, Geo mean (GeoCV%) [1, 11]: 8180 (102.8) ng∙h/mL
Cmax, GeoMean (GeoCV%) [1, 11]: 472 (110.1) ng/mL
tmax, median (range) [1, 11]: 4.60 (4.07–5.02) hours
AUC0–24, Geo mean (GeoCV%) ([1]; day 1 single dose, monotherapy 240 mg, n=8 for AUC): 9200 (74.5) ng∙h/mL
Cmax, GeoMean (GeoCV%) [1, 12]: 590 (81.4) ng/mL
tmax, median (range) [1, 12]: 6.25 (4.00–24.3) hours
AUC0–24, Geo mean (GeoCV%) ([1]; day 1 single dose, monotherapy 320 mg, n=6 for AUC): 15200 (104.0) ng∙h/mL
Cmax, GeoMean (GeoCV%) [1, 13]: 802 (112.0) ng/mL
tmax, median (range) [1, 13]: 4.73 (4.00–24.1) hours
AUC0–24, Geo mean (GeoCV%) ([1]; day 1 single dose, monotherapy 380 mg, n=2 for AUC): 16500 (36.6) ng∙h/mL
Cmax, GeoMean (GeoCV%) [1, 14]: 1320 (55.0) ng/mL
tmax, median (range) [1, 14]: 6.28 (4.12–9.52) hours
AUC0–τ, Geo mean (GeoCV%) [1, 15]: 16,000 (44.7) ng∙h/mL
Accumulation ratio (Cmax), Geo mean (GeoCV%) [1, 15]: 2.31 (20.6)
Cmax, GeoMean (GeoCV%) [1, 15]: 819 (50.9) ng/mL
tmax, median (range) [1, 15]: 4.5 (4.00–5.00) hours
AUC0–τ, Geo mean (GeoCV%) [1, 16]: 22,000 (42.9) ng∙h/mL
Accumulation ratio (Cmax), Geo mean (GeoCV%) [1, 16]: 1.98 (26.6)
Cmax, GeoMean (GeoCV%) [1, 16]: 1270 (48.3) ng/mL
tmax, median (range) [1, 16]: 3.33 (2.95–5.58) hours
AUC0–τ, Geo mean (GeoCV%) [1, 17]: 27,000 (29.3) ng∙h/mL
Accumulation ratio (Cmax), Geo mean (GeoCV%) [1, 17]: 3.47 (65.7)
Cmax, GeoMean (GeoCV%) [1, 17]: 1380 (31.3) ng/mL
tmax, median (range) [1, 17]: 3.98 (3.07–10.0) hours
AUC0–τ, Geo mean (GeoCV%) [1, 18]: 20,600 (41.7) ng∙h/mL
Accumulation ratio (Cmax), Geo mean (GeoCV%) [1, 18]: 1.7 (40.9)
Cmax, GeoMean (GeoCV%) [1, 18]: 1110 (39.9) ng/mL
tmax, median (range) [1, 18]: 3.15 (2.13–4.00) hours
AUC0–τ, Geo mean (GeoCV%) [1, 19]: 7400 (34.3) ng∙h/mL
Accumulation ratio (Cmax), Geo mean (GeoCV%) [1, 19]: 2.00 (26.1)
Cmax, GeoMean (GeoCV%) [1, 19]: 405 (23.7) ng/mL
tmax, median (range) [1, 19]: 3.07 (2.03–5.58) hours
AUC0–τ, Geo mean (GeoCV%) [1, 20]: 47,200 (49.3) ng∙h/mL
Accumulation ratio (Cmax), Geo mean (GeoCV%) [1, 20]: 2.73 (31.5)
Cmax, GeoMean (GeoCV%) [1, 20]: 2560 (52.8) ng/mL
tmax, median (range) [1, 20]: 5.88 (3.05–8.08) hours
AUC0–τ, Geo mean (GeoCV%) ([1]; day 15, monotherapy 15 mg, n=3): 2540 (6.0) ng∙h/mL
Accumulation ratio (Cmax), Geo mean (GeoCV%) ([1]; day 15, monotherapy 15 mg, n=3): 2.57 (73.6)
Cmax, GeoMean (GeoCV%) ([1]; day 15, monotherapy 15 mg, n=3): 136 (16.8) ng/mL
tmax, median (range) ([1]; day 15, monotherapy 15 mg, n=3): 3.00 (2.97–7.50) hours
AUC0–τ, Geo mean (GeoCV%) ([1]; day 15, monotherapy 30 mg, n=3): 5410 (17.8) ng∙h/mL
Accumulation ratio (Cmax), Geo mean (GeoCV%) ([1]; day 15, monotherapy 30 mg, n=3): 3.19 (41.2)
Cmax, GeoMean (GeoCV%) ([1]; day 15, monotherapy 30 mg, n=3): 279 (14.5) ng/mL
tmax, median (range) ([1]; day 15, monotherapy 30 mg, n=3): 4.30 (1.93–6.02) hours
AUC0–τ, Geo mean (GeoCV%) ([1]; day 15, monotherapy 60 mg, n=5): 10,000 (47.7) ng∙h/mL
Accumulation ratio (Cmax), Geo mean (GeoCV%) ([1]; day 15, monotherapy 60 mg, n=5): 3.03 (60.4)
Cmax, GeoMean (GeoCV%) ([1]; day 15, monotherapy 60 mg, n=5): 566 (48.5) ng/mL
tmax, median (range) ([1]; day 15, monotherapy 60 mg, n=5): 5.07 (3.03–7.62) hours
AUC0–τ, Geo mean (GeoCV%) ([1]; day 15, monotherapy 75 mg, n=4): 9440 (39.6) ng∙h/mL
Accumulation ratio (Cmax), Geo mean (GeoCV%) ([1]; day 15, monotherapy 75 mg, n=4): 3.02 (3.2)
Cmax, GeoMean (GeoCV%) ([1]; day 15, monotherapy 75 mg, n=4): 533 (47.5) ng/mL
tmax, median (range) ([1]; day 15, monotherapy 75 mg, n=4): 4.05 (4.03–5.12) hours
AUC0–τ, Geo mean (GeoCV%) [1, 21]: 15,500 (46.8) ng∙h/mL
Accumulation ratio (Cmax), Geo mean (GeoCV%) [1, 21]: 3.38 (55.6)
Cmax, GeoMean (GeoCV%) [1, 21]: 831 (43.3) ng/mL
tmax, median (range) [1, 21]: 6.05 (3.00–6.07) hours
AUC0–τ, Geo mean (GeoCV%) [1, 22]: 23,700 (43.7) ng∙h/mL
Accumulation ratio (Cmax), Geo mean (GeoCV%) [1, 22]: 2.40 (36.8)
Cmax, GeoMean (GeoCV%) [1, 22]: 1300 (45.1) ng/mL
tmax, median (range) [1, 22]: 4.08 (1.93–6.00) hours
AUC0–τ, Geo mean (GeoCV%) [1, 23]: 28,400 (91.6) ng∙h/mL
Accumulation ratio (Cmax), Geo mean (GeoCV%) [1, 23]: 3.21 (63.5)
Cmax, GeoMean (GeoCV%) [1, 23]: 1520 (100.8) ng/mL
tmax, median (range) [1, 23]: 3.77 (3.50–4.05) hours
AUC0–τ, Geo mean (GeoCV%) [1, 24]: 31,300 (55.8) ng∙h/mL
Accumulation ratio (Cmax), Geo mean (GeoCV%) [1, 24]: 2.51 (77.8)
Cmax, GeoMean (GeoCV%) [1, 24]: 1920 (48.5) ng/mL
tmax, median (range) [1, 24]: 4.00 (2.95–6.10) hours
AUC0–τ, Geo mean (GeoCV%) [1, 25]: 39,700 (52.3) ng∙h/mL
Accumulation ratio (Cmax), Geo mean (GeoCV%) [1, 25]: 2.12 (67.9)
Cmax, GeoMean (GeoCV%) [1, 25]: 2110 (39.6) ng/mL
tmax, median (range) [1, 25]: 5.48 (3.57–6.08) hours
AUC0–τ, Geo mean (GeoCV%) [1, 26]: 41,400 (34.5) ng∙h/mL
Accumulation ratio (Cmax), Geo mean (GeoCV%) [1, 26]: 2.20 (97.9)
Cmax, GeoMean (GeoCV%) [1, 26]: 2490 (9.4) ng/mL
tmax, median (range) [1, 26]: 2.50 (2.00–3.00) hours
Area under the curve on day 15 ([1]; highest doses of 240–380 mg): > 30,000 ng h/mL
Pharmacokinetic profile combined with tamoxifen versus monotherapy ([1]; in vivo): similar
Accumulation on day 15 after repeated doses ([1]; monotherapy): 2.12–3.38 fold
Apparent oral clearance (CL/f) ([1]; monotherapy): ~ 6 L/h
Terminal half-life ([1]; monotherapy): ~ 30 h
Median time to maximum plasma concentration (tmax) ([1]; monotherapy, across doses): 3.08 to 6.28 h
Dose proportionality of M2698 exposure ([1]; monotherapy, single and multiple administrations): exposure increased proportionally with dose
M2698 exposure in combination with trastuzumab ([1]; versus monotherapy): relatively higher
AUC0-∞ (90% CI) [2, 27]: 40016.18 (22818.47–70175.36) ng.h/mL
Cmax (90% CI) [2, 27]: 769.04 (410.14–1441.99) ng/mL
AUC0-∞ (90% CI) ([2]; Fed, single dose of 240 mg, n=7): 38626.33 (21989.80–67849.37) ng.h/mL
Cmax (90% CI) ([2]; Fed, single dose of 240 mg, n=8): 934.92 (498.61–1753.02) ng/mL
Food effect on the exposure of M2698 ([2]; in vivo): no apparent food effect
Cmax Fed/fasted ratio (90% CI) ([2]; single dose of 240 mg, p=0.3917): 1.2157 (0.8058–1.8341) p=0.3917
AUC0-∞ Fed/fasted ratio (90% CI) ([2]; single dose of 240 mg, p=0.6504): 0.9653 (0.8326–1.1191) p=0.6504
AUC giving 70% inhibition of pS6 in tumor tissue ([3]; Emax model): 15,174 h.ng/mL
AUC giving 80% inhibition of pS6 in tumor tissue ([3]; Emax model): 32,087 h.ng/mL
Dose giving 70% inhibition of pS6 in tumor tissue ([3]; log-linear regression model): ~ 160 mg
Dose giving 80% inhibition of pS6 in tumor tissue ([3]; log-linear regression model): ~240 mg
Inhibition of pS6 levels in tumor tissue ([3]; paired biopsies, 28 patients): dose- and concentration-dependent inhibition
Changes in mean electrocardiogram data ([4]; across all cohorts): no clinically relevant changes
Correlation between exposure and fasting glucose levels ([4]; in vivo): no correlation

Reference: article PMC8371902, “Phase 1 study of M2698, a p70S6K/AKT dual inhibitor, in patients with advanced cancer” (Journal of Hematology & Oncology, 2021)
